Measured values: patent publication US10669227B2 (THE RESEARCH FOUNDATION OF STATE UNIVERSITY OF NEW YORK, priority 2009, dated 2020)
“Also recorded” adds a separate entry of the source.

Tests used:
[1] = target: MMP-9 (92 kDa gelatinase) (Rattus norvegicus (Rat), UniProt P50282); test: Diabetic rat, plasma gelatinase by gelatin zymography (MMP-9); format: in vivo; conditions: diabetic rats, 100 mg/kg oral once/day, 7 days
MMP-9 = MMP-9 (Rattus norvegicus (Rat), UniProt P50282); test: Diabetic rat, gingiva gelatinase by gelatin zymography (MMP-9); format: in vivo; conditions: diabetic rats, 100 and 500 mg/kg oral daily, 3 weeks
Protocol: (§1) At the end of the treatment protocol, the rats were sacrificed, blood samples were collected, and whole skin (except over limbs) and qingiva were dissected (the skin, because of ample quantities of tissue were analyzed for each rat separately; the gingiva, because of the tiny amounts that could be harvested per rat, were pooled for each experimental group, as prescribed previously for tetracycline studies (30). In addition, the jaw bones were collected, defleshed, and bone loss around the teeth analyzed morphometrically as described previously (42, 43).
This appearance of MMP-9 only in the gingiva (FIG. 10), but not the skin (FIG. 12), of the diabetic rats is likely the result of the oral bacteria inducing inflammation in the gingiva of these immune-suppressed UD rats, whereas the skin is not exposed to this onslaught of bacteria particularly the anaerobic gram-negative bacteria in the mouth that cause periodontal and gingival inflammation.

MCP-1 = test: Inhibition of MCP-1 production by LPS-stimulated monocytes; format: cell-based, human
Protocol: (§2) Briefly, human peripheral blood monocytes (HMs) were isolated from a leukocyte concentrate by density gradient centrifugation (Lymphoprep) and the isolated HMs cultured (2 h, 37° C.) to remove non-adherent cells. The adherent HMs wore cultured for 18 h (1×10^6 cells/well, 24-well plates)±endotoxin (LPS)±different compounds dissolved in DMSO (the final concentration of DMSO in the RPMI serum-free culture media with Pen./Strep. antibiotics was no greater than 0.5%). After incubation, the proinflammatory cytokines, TNFα, […], MCP-1 and IL-6 were measured in the conditioned media by ELISA and cytotoxicity was assessed by measuring the absorbance (490 nm) of formazan produced by reduction of MTS. The HMs alone±0.1-0.5% DMSO produced minimal levels of these pro-inflammatory cytokines. However, addition of 100 ng/ml or 10 μg/ml of LPS both dramatically stimulated cytokine production.
(§3) The cytokine levels were measured by Luminex multiplex, a method that allows the simultaneous measurement of different biological markers.

IL-1β = IL-1β (Rattus norvegicus (Rat), UniProt Q63264); test: Diabetic rat, IL-1β in gingiva extracts by ELISA; format: in vivo; conditions: 3 weeks
Protocol: as §1

[2] = Type I diabetic rat model, 3-week oral treatment: blood glucose and hemoglobin A1c; format: in vivo; conditions: diabetic rats, 100 and 500 mg/kg oral daily, 3 weeks
Protocol: as §1

[3] = Solubility in aqueous solutions; format: physicochemical; conditions: comparative
[4] = system: neonatal rat ventricular myocytes; test: Hydrogen peroxide induced LDH release; format: cell-based; conditions: 10 μM, H2O2 100 μM, 24 h
Protocol: Neonatal rat ventricular myocytes, serum starved for 24 h, were treated with the inhibitors 1 h prior to the addition of 100 μM of hydrogen peroxide (Sigma). LDH release in the conditioned media was quantified using CytoTox-ONE Homogeneous Membrane Integrity Assay reagent (Promega) at the indicated time points.

MMP-2 = test: Diabetic rat, MMP-2 in skin by ELISA; format: in vivo; conditions: both low and high doses, 3 weeks
Protocol: as §1

human monocytes = test: Cytotoxicity in human monocytes (MTS); format: cell-based
Protocol: as §2, with “The adherent HMs wore cultured for 18 h (1×10^6 cells/well, 24-well plates)±endotoxin (LPS)±different compounds dissolved in DMSO (the final concentration of DMSO in the RPMI serum-free culture media with Pen./Strep. antibiotics was no greater than 0.5%).” left out

[5] = system: PC-3 human prostate cancer cells; test: MMP-9 in conditioned media of PC-3 cells, gelatin zymography and Western blot; format: cell-based; conditions: 10 μM and 20 μM, 48 hr, serum-free
Protocol: Compound 1 was evaluated in a cell culture model of cancer. […] After the incubation, aliquots of the conditioned media were assayed for MMP-9 (gelatinase B) by either of two techniques, gelatin zymography (in the presence of 2 or 10 mMCa^++) and Western blot (both assays used purified MMP-9, 92 kDa gelatinase, as a standard).

[6] = target: MMP-2 (72 kDa gelatinase) (Rattus norvegicus (Rat), UniProt P33436); test: Diabetic rat, plasma gelatinase by gelatin zymography (MMP-2); format: in vivo; conditions: diabetic rats, 100 mg/kg oral once/day, 7 days
[7] = target: MMP-9 (human leukocyte gelatinase) (Homo sapiens (Human), UniProt P14780); test: MMP-9 inhibition in vitro, octapeptide substrate, HPLC; format: biochemical; conditions: read-out: Maximum Inhibition At 100 μM compound (MMP-9)
Source text: In contrast all three chemically-modified curcumins at 100 μm final concentration inhibited gelatinase activity by 68-100% (FIG. 6 and Table 6).

IL-6 = test: Inhibition of IL-6 production by LPS-stimulated monocytes; format: cell-based; conditions: Homo sapiens, Monocyte, 18 h, read-out: % Inhibition of IL-6 produced by stimulated Monocytes with LPS @ 18 h
Protocol: as §2

alveolar bone loss = test: Diabetic rat, alveolar bone loss, morphometric; format: in vivo; conditions: 500 mg/kg oral, 3 weeks
Protocol: as §1
Alveolar bone loss (the signature pathologic event in inflammatory periodontal disease) was assessed in the defleshed jaws of the compound 1-treated (TX) and untreated rats.

[8] = Type I diabetic rat model, 1-week oral treatment: glucose, adverse events, serum level; format: in vivo; conditions: diabetic rats
Source text: The purpose of the following was to establish an in vivo model of excessive collagen degradation to be used to test efficacy of the compounds of the subject invention. Male Sprague-Dawley rats (typically 300-400 gms of body weight), specific viral antibody free, were ordered from Charles River. Following general anesthesia via isoflurane anesthetic inhalation, diabetes was induced by an I.V. administration of streptozotocin (STZ) (50*mg/kg body weight) (Sigma Chemical Co., St Louis, Mo., USA) diluted in 0.9% citrated saline (pH 4.5), after 12 hours of fasting. After the streptozotocin injection, the animals were given free access to water and food. […] In this test, the test-paper color changes to dark brown which indicates glycosuria.
The latter assays were carried out using Western blot analysis with monoclonal antibodies to MMP-8.

VEGF = VEGF level in LPS-challenged human monocytes, Luminex multiplex; format: cell-based; conditions: 2 μM, FIG. 2
Protocol: as §3

Sequence of MMP-9 (human leukocyte gelatinase) (P14780 94-707): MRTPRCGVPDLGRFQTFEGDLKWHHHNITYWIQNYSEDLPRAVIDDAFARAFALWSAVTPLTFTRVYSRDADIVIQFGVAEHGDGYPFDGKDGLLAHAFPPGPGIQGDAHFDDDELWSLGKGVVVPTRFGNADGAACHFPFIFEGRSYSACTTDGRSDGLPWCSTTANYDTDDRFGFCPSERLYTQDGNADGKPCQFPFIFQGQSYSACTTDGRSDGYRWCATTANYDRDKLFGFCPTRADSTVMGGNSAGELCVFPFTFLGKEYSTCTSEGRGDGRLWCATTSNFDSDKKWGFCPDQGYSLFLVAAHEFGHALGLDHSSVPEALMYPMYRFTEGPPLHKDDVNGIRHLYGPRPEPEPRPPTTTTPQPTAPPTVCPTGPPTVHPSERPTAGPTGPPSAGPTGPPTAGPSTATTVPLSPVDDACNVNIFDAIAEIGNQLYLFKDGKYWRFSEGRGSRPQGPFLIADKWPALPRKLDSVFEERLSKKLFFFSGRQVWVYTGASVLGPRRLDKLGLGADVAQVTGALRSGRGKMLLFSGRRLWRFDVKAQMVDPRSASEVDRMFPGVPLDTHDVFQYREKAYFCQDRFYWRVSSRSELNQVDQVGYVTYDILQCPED

MMP-9 level in gingiva (MMP-9): reduced MMP-9 to the undetectable levels
Reduction of IL-1β in gingiva vs untreated diabetic (IL-1β; higher oral dose (500 mg/kg)): 95%
Reduction of IL-1β in gingiva vs untreated diabetic (IL-1β; lower dose (100 mg/kg)): about 18%
inhibition at 100 µM [7]: 72%
Structure (SMILES): COC(=O)C(C(=O)/C=C/c1ccc(O)c(OC)c1)C(=O)/C=C/c1ccc(O)c(OC)c1 [Compound 1, 1,7-Bis(4-hydroxy-3-methoxyphenyl)-4-methoxycarbonylhepta-1E,6E-dien-3,5-dione]
Plasma MMP-9 level [1]: reduced the excessive levels of MMPs to essentially normal levels
MCP-1 level in LPS-challenged human monocytes, Luminex multiplex (MCP-1; 2 μM, FIG. 2): potent in reducing
inhibition at 2 µM (MCP-1; Homo sapiens, Monocyte, 18 h, 2 uM, read-out: % Inhibition of MCP-1 produced by stimulated Monocytes with LPS @ 18 h): 74%
inhibition at 25 µM (MCP-1; Homo sapiens, Monocyte, 18 h, 25 uM, read-out: % Inhibition of MCP-1 produced by stimulated Monocytes with LPS @ 18 h): 78%
inhibition at 50 µM (MCP-1; Homo sapiens, Monocyte, 18 h, 50 uM, read-out: % Inhibition of MCP-1 produced by stimulated Monocytes with LPS @ 18 h): 79%
Blood glucose [2]: no significant effect
Hemoglobin A1c level [2]: no significant effect
Solubility [3]: improved solubility; also recorded: more soluble than the insoluble natural product curcumin
LDH release [4]: less dramatic effect
Reduction of elevated MMP-2 level in skin (MMP-2): 28%
Cytotoxicity Monocytes @ 5 h incubation (human monocytes; 2 uM): 2 uM - 0%
Cytotoxicity Monocytes @ 5 h incubation (human monocytes; 10 uM): 10 uM - 0%
Cytotoxicity Monocytes @ 5 h incubation (human monocytes; 25 uM): 25 uM - 33%
Cytotoxicity Monocytes @ 18 h incubation (human monocytes; 25 uM): 25 uM - 45.5%
Cytotoxicity Monocytes @ 18 h incubation (human monocytes; 50 uM): 50 uM - 53%
MMP-9 production and/or activity in conditioned media [5]: inhibited the production and/or activity of MMP-9
Plasma MMP-2 level [6]: reduced the excessive levels of MMPs to essentially normal levels
inhibition at 2 µM (IL-6; 2 uM): 30%
inhibition at 25 µM (IL-6; 25 uM): 100%
inhibition at 50 µM (IL-6; 50 uM): 100%
Reduction in alveolar bone loss vs untreated groups (alveolar bone loss): less effective
Severity of hyperglycemia (serum glucose) ([8]; 100 mg/kg oral once/day, 7 days): no effect on the severity of hyperglycemia
Description of AEs ([8]; n = 6, 1 week oral treatment): Minor inflamed
Incidence of Adverse Events (AEs) ([8]; n = 6, 1 week oral treatment): 1/6
concentration at 7 days ([8]; male, Sprague-Dawley, rat, serum, 100 mg/kg, 1 week oral treatment, FIG. 7): ~100 ng/mL
VEGF level in LPS-challenged human monocytes, Luminex multiplex (VEGF): potent in reducing
